Measured values taken from patent publication US20070037883A1, “Therapeutic compositions” (priority 2003, published 2007).

Experiments:
[1] = biological target: T1, gp91phox-containing NADPH-oxidase in the mouse macrophage cell line J774 (Mus musculus, UniProt Q61093); experiment: NADPH oxidase activity in intact J774 mouse macrophages; type: cell-based; details: FIG. 2b
T1 construct: endogenous in cells; host or cells: J774 mouse macrophage cell line (intact cells)
T1 sequence (Q61093 2-570 limits assumed): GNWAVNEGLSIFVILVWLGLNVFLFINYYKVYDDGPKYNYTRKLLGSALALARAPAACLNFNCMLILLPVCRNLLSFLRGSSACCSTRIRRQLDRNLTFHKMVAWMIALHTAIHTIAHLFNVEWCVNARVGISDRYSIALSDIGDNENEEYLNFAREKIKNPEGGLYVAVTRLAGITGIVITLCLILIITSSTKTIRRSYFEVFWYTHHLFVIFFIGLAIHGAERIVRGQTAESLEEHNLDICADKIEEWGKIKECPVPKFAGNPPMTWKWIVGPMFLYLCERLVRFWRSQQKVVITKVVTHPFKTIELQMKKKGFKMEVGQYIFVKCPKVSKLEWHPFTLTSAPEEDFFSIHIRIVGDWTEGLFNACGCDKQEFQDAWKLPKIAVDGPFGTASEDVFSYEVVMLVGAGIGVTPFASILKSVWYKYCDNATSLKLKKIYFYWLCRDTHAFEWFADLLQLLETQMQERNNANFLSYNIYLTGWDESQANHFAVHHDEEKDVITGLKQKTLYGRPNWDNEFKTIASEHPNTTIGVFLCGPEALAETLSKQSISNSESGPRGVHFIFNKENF
T1 sequence (Q61462 1-192 partner): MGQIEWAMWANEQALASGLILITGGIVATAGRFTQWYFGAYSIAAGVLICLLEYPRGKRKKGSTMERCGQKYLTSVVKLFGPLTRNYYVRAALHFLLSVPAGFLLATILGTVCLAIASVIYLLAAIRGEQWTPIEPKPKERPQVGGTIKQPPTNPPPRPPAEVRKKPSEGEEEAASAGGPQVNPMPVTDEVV

[2] = biological target: endothelial nitric oxide synthase (Homo sapiens, UniProt P29474); details: read-out: IC50, inhibition of endothelial nitric oxide synthase; Stuehr et al. 1991; Wang et al. 1993; cited from earlier work
Sequence of endothelial nitric oxide synthase (P29474 2-1203): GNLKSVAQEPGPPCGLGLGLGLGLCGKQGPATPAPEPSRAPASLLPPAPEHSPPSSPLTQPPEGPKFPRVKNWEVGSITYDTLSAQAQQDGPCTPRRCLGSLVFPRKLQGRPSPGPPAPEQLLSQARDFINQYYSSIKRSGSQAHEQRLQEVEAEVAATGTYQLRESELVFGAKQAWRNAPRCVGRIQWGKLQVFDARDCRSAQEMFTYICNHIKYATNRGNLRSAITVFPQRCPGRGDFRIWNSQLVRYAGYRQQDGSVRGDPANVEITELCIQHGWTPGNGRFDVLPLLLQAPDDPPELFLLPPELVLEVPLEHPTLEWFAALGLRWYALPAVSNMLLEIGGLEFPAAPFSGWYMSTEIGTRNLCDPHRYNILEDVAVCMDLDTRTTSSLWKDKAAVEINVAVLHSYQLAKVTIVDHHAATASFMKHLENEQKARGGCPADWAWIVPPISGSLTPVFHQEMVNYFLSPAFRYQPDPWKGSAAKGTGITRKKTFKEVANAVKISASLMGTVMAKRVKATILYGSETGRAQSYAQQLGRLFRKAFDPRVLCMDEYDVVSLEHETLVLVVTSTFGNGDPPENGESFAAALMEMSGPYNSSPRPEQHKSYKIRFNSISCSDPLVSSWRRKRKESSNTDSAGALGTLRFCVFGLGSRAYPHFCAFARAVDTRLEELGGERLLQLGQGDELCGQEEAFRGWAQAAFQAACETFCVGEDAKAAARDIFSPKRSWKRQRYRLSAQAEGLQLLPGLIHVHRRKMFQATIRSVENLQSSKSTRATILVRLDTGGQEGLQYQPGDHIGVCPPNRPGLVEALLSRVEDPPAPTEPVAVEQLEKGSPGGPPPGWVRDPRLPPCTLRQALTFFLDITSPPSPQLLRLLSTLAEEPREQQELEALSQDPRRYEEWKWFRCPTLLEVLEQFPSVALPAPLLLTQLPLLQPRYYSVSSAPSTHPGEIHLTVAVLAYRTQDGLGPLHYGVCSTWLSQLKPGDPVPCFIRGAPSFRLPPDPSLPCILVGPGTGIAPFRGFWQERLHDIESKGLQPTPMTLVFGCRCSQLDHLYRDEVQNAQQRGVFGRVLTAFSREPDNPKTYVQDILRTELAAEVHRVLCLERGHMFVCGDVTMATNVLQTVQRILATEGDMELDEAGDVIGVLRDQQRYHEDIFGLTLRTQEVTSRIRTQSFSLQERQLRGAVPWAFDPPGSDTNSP

[3] = system: Nox4 mRNA; experiment: Nox4 mRNA expression in cultured mouse VSMCs, real-time PCR; type: cell-based; details: 500 nmol/L oligonucleotide, 24 h, FIG. 9
Experimental: Mouse VSMCs were plated sparsely onto 96-well ViewPlates (Packard Bioscience) (for superoxide measurements) or onto 35 mm culture dishes (for RNA extraction) such that they were 30-50% confluent at the time of transfection 24 h later. At the time of transfection, cells were washed with serum- and antibiotic free DMEM and were then incubated in serum- and antibiotic-free DMEM containing 8 μL/mL Oligofectamine Transfection Reagent (Invitrogen Life Technologies) complexed with the antisense (0-1000 nmol/L), mismatch (500 nmol/L) or scrambled (560 nmol/L) oligonucleotides. […]
RNA was extracted from cultured and freshly isolated mouse VSMCs, and from freshly isolated whole aortas using RNAwiz (Ambion) according to the manufacturer's protocol. RNA concentrations were determined spectrophotometrically by measuring absorbance at 260 nm. […]
Real-time PCR and the ΔΔCt method were used as previously described to examine mRNA expression of Nox4 and Nox1 relative to a “reference” sample. […] 18S ribosomal RNA was used as the internal standard for each reaction and was detected with commercially available rodent 18S primers and a 5′-VIC-labeled probe (PE Biosystems; Table 7).
Nox4 was amplified in duplex with 18S in PCR mixtures (25 μL final volume) containing 1× TaqMan (registered trademark). […] Reactions were performed and fluorescence monitored in the ABI Prism 7700 Sequence Detector (PE Biosystems).

Molecule	reduction in Nox4 mRNA expression [3]	also measured
1-amino-4[[4[[4-chloro-6-[[n-sulfophenyl]amino]-1,3,5-triazin-2-yl]amino]-3-sulfophenyl]amino]-9,10-dihydro-9,10-dioxo-2-anthracene-sulfonic acid wherein n is 3 or 4 [Reactive blue-2]	–	effect on gp91phox-containing NADPH-oxidase in J774 macrophages / phagocytic cells [1]: ineffective
c1ccc2c(c1)[I+]c1ccccc1-2 [DPI, diphenyleneiodonium]	–	IC50 [2]: 180 to 300 nM
+13/+33 mismatch: mismatch control oligonucleotide TAGGCCAGCAAGCTCCTACA [SEQ ID NO:18], differs in three base positions (chemistry not given here)	no effect	–
+13/+33 scrambled: scrambled control oligonucleotide CGTCACGCTCAGCTCACCGT [SEQ ID NO:19], same base composition in random order (chemistry not given here)	no effect	–
